Results: patent publication US7700584B2 (Hangzhou Minsheng Pharmaceuticals Co., Ltd., priority 2004, dated 2010)
Structures can show the parent of a compound that is named as a salt. Where two headings read alike, the source gives them in different places.

Experiments:
[1] = tested on: HL-60 human promyelocytic leukemia; assay: In vitro inhibition rate to tumor cells (MTT), HL-60; assay type: cell-based; conditions: for inhibition at 50 µg/mL: Homo sapiens, HL-60, 50 μg/ml, read-out: inhibition rate, Results (%) HL-60; for inhibition rate, Results (%) HL-60: 50 μg/ml, hydrochloride
[2] = molecular target: T1, HIV-1 reverse transcriptase (Human immunodeficiency virus type 1 group M subtype B, UniProt P04585); assay: Screening for the in vitro activity against the HIV-1 reverse transcriptase; assay type: biochemical
T1 construct: purchased
Summary of the method: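 Each sample, taken from DMSO through five 5-fold water dilutions, was incubated with recombinant RT and Biotin-dUTP substrate. Enzyme activity was quantified as biotin label incorporated into the plate-bound template, using streptavidin-HRP with absorbance at 450 nm.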

[3] = tested on: MCF-7 human mammary adenocarcinoma; assay: In vitro anti-tumor IC50 (MTT), MCF-7; assay type: cell-based; conditions: Table 4
Experimental: (1) Single cell suspension was seeded into 96-well plates (the cells was diluted in the PRMI-1640 minimum medium to 3×10^4 cells/ml, […] diluted cells/well). […] The experiments were performed in quadruplicate.
(2) The medium was removed. Solutions of the anti-tumor agents (50 compounds) were prepared in a freshly prepared medium at serial concentrations. […] of the solution was added into each well. Incubation was continued for 48 hours.
(3) 20 ug of 2 mg/ml MTT was added into each well, and incubated for 4 hours.
(4) The medium was removed from the well. The microplates were swiftly turned down to throw-off the medium. […] of DMSO was added into each well, and vortexed at room temperature for 10 minutes.
(5) OD value (λ=570 nm) was measured with an Enzyme-Linked Detector.
(6) The graph of cell vitality was plotted, and IC50 was calculated.

[4] = tested on: mouse grafted sarcoma S-180; assay: Activity against mouse grafted sarcoma S-180; assay type: in vivo, Kunming mice; conditions: for Inhibition rate (%) / Tumor weight: 6 doses; for Tumor weight: X ± SD, n = 10; for Average weight (g)-after administration / Average weight(g)-after administration: mouse, in vivo, iv; for inhibitory effect against mouse sarcoma S-180 (in words): three different concentrations (40, 20, 10 mg/kg), i.v.
Summary of the method: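 Male Kunming mice inoculated axillarily with S-180, 10 per group, given 10% compound solutions IV at 0.4, 0.2 or 0.1 ml/mouse from the day after inoculation, alternate days, 6 doses. Tumours excised the day after last dose; inhibition rate from mean tumour weight versus saline control; repeated three times.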

[5] = tested on: mouse grafted liver cancer H22; assay: Activity against mouse grafted liver cancer H22; assay type: in vivo, Kunming mice; conditions: for Tumor weight: X ± SD, n = 10; for Average weight (g)-after administration / Average weight(g)-after administration: mouse, in vivo; for inhibitory effect against mouse grafted liver cancer H22 (in words): three different concentrations (40, 20, 10 mg/kg), i.v.
Summary of the method: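 Male Kunming mice inoculated with liver cancer H22, 10 per group; compounds (10%, 0.4, 0.2 or 0.1 ml/mouse) injected from the day after inoculation on alternate days, 6 doses. Tumours excised the day after last dose; inhibition rate from mean tumour weight versus saline controls; repeated three times.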

[6] = S-180, first experiment, 10 mg/kg i.v.
[7] = S-180, first experiment, 20 mg/kg i.v.
[8] = S-180, first experiment, 40 mg/kg i.v.
[9] = S-180, second experiment, 10 mg/kg i.v.
[10] = S-180, second experiment, 20 mg/kg i.v.
[11] = S-180, second experiment, 40 mg/kg i.v.
[12] = H22, first experiment, 10 mg/kg i.v., 6 doses
[13] = H22, first experiment, 20 mg/kg i.v., 6 doses
[14] = H22, first experiment, 40 mg/kg i.v., 6 doses
[15] = H22, second experiment, 10 mg/kg
[16] = H22, second experiment, 20 mg/kg
[17] = H22, second experiment, 40 mg/kg
[18] = H22, third experiment, 10 mg/kg
[19] = H22, third experiment, 20 mg/kg
[20] = H22, third experiment, 40 mg/kg

CC(C)C1CC23OC1(O)CC(=CN1CCNCC1)C2CCC3C (stereo not drawn) [Compound 8, Curcumol piperazine hydrochloride]
inhibition at 50 µg/mL ([1]; Table 1): 92% | inhibition at 50 µg/mL ([1]; Table 2 (repeated screening)): 90.2% | inhibition at 50 µg/mL ([1]; Table 3 (repeated screening)): 91.1% | IC50 ([2]; IC50, initial concentration 200 μg/ml): > 624 µM | IC50 ([3]; Homo sapiens, MCF7, read-out: IC50 (ug/ml) against tumor cell lines, MCF): 3.28 µg/mL | Inhibition rate (%) [4, 6]: 16% | Tumor weight [4, 6]: 2.1 ± 0.42 g | Inhibition rate (%) [4, 7]: 20% | Tumor weight [4, 7]: 2.0 ± 0.40 g | Inhibition rate (%) [4, 8]: 48% | Tumor weight [4, 8]: 1.3 ± 0.24 g | Inhibition rate (%) [4, 9]: 15.4% | Tumor weight [4, 9]: 2.2 ± 0.31 g | Inhibition rate (%) [4, 10]: 15.4% | Tumor weight [4, 10]: 2.2 ± 0.29 g | Inhibition rate (%) [4, 11]: 46.1% | Tumor weight [4, 11]: 1.4 ± 0.37 g | Average weight (g)-after administration ([4]; 10 mg/kg): 22.5 g | Average weight(g)-after administration ([4]; 10 mg/kg): 23.5 g | Average weight (g)-after administration ([4]; 20 mg/kg): 21.8 g | Average weight(g)-after administration ([4]; 20 mg/kg): 21.8 g | Average weight (g)-after administration ([4]; 40 mg/kg): 23.0 g | Average weight(g)-after administration ([4]; 40 mg/kg): 23.0 g | inhibitory effect against mouse sarcoma S-180 (in words) [4]: had the inhibitory effect only when the concentration reached 40 mg/kg | Tumor weight [5, 12]: 3.02 ± 0.33 g | Inhibition rate (%) [5, 13]: 4.0% | Tumor weight [5, 13]: 2.9 ± 0.39 g | Inhibition rate (%) [5, 14]: 37.1% | Tumor weight [5, 14]: 1.9 ± 0.36 g | Tumor weight [5, 15]: 3.10 ± 0.33 g | Inhibition rate (%) [5, 16]: 4.0% | Tumor weight [5, 16]: 2.9 ± 0.39 g | Inhibition rate (%) [5, 17]: 36.1% | Tumor weight [5, 17]: 1.93 ± 0.36 g | Inhibition rate (%) [5, 18]: 2.3% | Tumor weight [5, 18]: 2.95 ± 0.33 g | Inhibition rate (%) [5, 19]: 7.3% | Tumor weight [5, 19]: 2.8 ± 0.39 g | Inhibition rate (%) [5, 20]: 33.4% | Tumor weight [5, 20]: 2.01 ± 0.36 g | Average weight (g)-after administration ([5]; 10 mg/kg): 20.3 g | Average weight(g)-after administration ([5]; 10 mg/kg): 22.3 g | Average weight (g)-after administration ([5]; 20 mg/kg): 20.9 g | Average weight(g)-after administration ([5]; 20 mg/kg): 21.9 g | Average weight (g)-after administration ([5]; 40 mg/kg): 21.9 g | Average weight(g)-after administration ([5]; 40 mg/kg): 21.4 g | Average weight(g)-after administration ([5]; iv, 10 mg/kg): 22.3 g | Average weight(g)-after administration ([5]; iv, 20 mg/kg): 21.9 g | Average weight(g)-after administration ([5]; iv, 40 mg/kg): 22.4 g | inhibitory effect against mouse grafted liver cancer H22 (in words) [5]: some inhibitory effect only when the concentration reached 40 mg/kg

CC(C)C1CC23OC1(O)C/C(=C\Nc1ccc(O)cc1)C2CCC3C (stereo not drawn) [Compound 6, Curcumol p-hydroxy aniline hydrochloride]
inhibition rate, Results (%) HL-60 ([1]; Table 1): 93.21% | inhibition rate, Results (%) HL-60 ([1]; Table 2 (repeated screening)): 93.21% | inhibition at 50 µg/mL ([1]; Table 3 (repeated screening)): 95.5% | IC50 ([2]; initial concentration 200 μg/ml): > 582 µM | IC50 (ug/ml) against tumor cell lines, MCF ([3]; hydrochloride): 1.10 µg/mL | Inhibition rate (%) [4, 6]: 56% | Tumor weight [4, 6]: 1.1 ± 0.31 g | Inhibition rate (%) [4, 7]: 68.4% | Tumor weight [4, 7]: 0.79 ± 0.21 g | Inhibition rate (%) [4, 8]: 75.2% | Tumor weight [4, 8]: 0.62 ± 0.34 g | Inhibition rate (%) [4, 9]: 57.7% | Tumor weight [4, 9]: 1.1 ± 0.31 g | Inhibition rate (%) [4, 10]: 68.8% | Tumor weight [4, 10]: 0.82 ± 0.32 g | Inhibition rate (%) [4, 11]: 72.7% | Tumor weight [4, 11]: 0.71 ± 0.44 g | Average weight (g)-after administration ([4]; 10 mg/kg): 22.3 g | Average weight(g)-after administration ([4]; 10 mg/kg): 22.3 g | Average weight (g)-after administration ([4]; 20 mg/kg): 22.9 g | Average weight(g)-after administration ([4]; 20 mg/kg): 21.9 g | Average weight (g)-after administration ([4]; 40 mg/kg): 22.0 g | Average weight(g)-after administration ([4]; 40 mg/kg): 22.0 g | inhibitory effect against mouse sarcoma S-180 (in words) [4]: good inhibitory effect | Inhibition rate (%) [5, 12]: 7.0% | Tumor weight [5, 12]: 2.8 ± 0.37 g | Inhibition rate (%) [5, 13]: 47.0% | Tumor weight [5, 13]: 1.60 ± 0.29 g | Inhibition rate (%) [5, 14]: 61.9% | Tumor weight [5, 14]: 1.15 ± 0.31 g | Inhibition rate (%) [5, 15]: 13.9% | Tumor weight [5, 15]: 2.6 ± 0.37 g | Inhibition rate (%) [5, 16]: 47.7% | Tumor weight [5, 16]: 1.58 ± 0.29 g | Inhibition rate (%) [5, 17]: 60.3% | Tumor weight [5, 17]: 1.21 ± 0.31 g | Inhibition rate (%) [5, 18]: 7.3% | Tumor weight [5, 18]: 2.8 ± 0.37 g | Inhibition rate (%) [5, 19]: 46.0% | Tumor weight [5, 19]: 1.63 ± 0.29 g | Inhibition rate (%) [5, 20]: 56.9% | Tumor weight [5, 20]: 1.30 ± 0.31 g | Average weight (g)-after administration ([5]; 10 mg/kg): 21.2 g | Average weight(g)-after administration ([5]; 10 mg/kg): 21.0 g | Average weight (g)-after administration ([5]; 20 mg/kg): 20.0 g | Average weight(g)-after administration ([5]; 20 mg/kg): 22.0 g | Average weight (g)-after administration ([5]; 40 mg/kg): 21.4 g | Average weight(g)-after administration ([5]; 40 mg/kg): 22.4 g | Average weight(g)-after administration ([5]; iv, 10 mg/kg): 22.0 g | Average weight(g)-after administration ([5]; iv, 20 mg/kg): 22.2 g | Average weight(g)-after administration ([5]; iv, 40 mg/kg): 22.1 g | inhibitory effect against mouse grafted liver cancer H22 (in words) [5]: good inhibitory effect
